{"source": "ChEMBL document CHEMBL5727850", "about": "“Haloallylamine indole and azaindole derivative inhibitors of lysyl oxidases and uses thereof” (2020)", "experiment": "Inhibition Assay: LOX and LOXL2: Lysyl oxidase (LOX) is an extracellular copper dependent enzyme which oxidizes peptidyl lysine and hydroxylysine residues in collagen and lysine residues in elastin to produce peptidyl alpha-aminoadipic-delta-semialdehydes. […] There are five LOX family members; these are LOX, LOXL1, LOXL2, LOXL3 and LOXL4. LOX and LOXL family members can be acquired as recombinant active proteins from commercial sources, or extracted from animal tissues like bovine aorta, tendons, pig skin; or prepared from cell cultures. The inhibitory effects of the compounds of the present invention were tested against the given LOX-LOXL preparation using a high-throughput coupled colorimetric method (Holt A. and Palcic M., A peroxidase-coupled continuous absorbance plate-reader assay for flavin monoamine oxidases, copper-containing amine oxidases and related enzymes. Nat. Protoc. 2006; 1: 2498-2505). The assay was developed using either 384 or 96 well format. Briefly, in a standard 384 well plate assay 25 μL of a dilution of any of the isoenzymes and orthologues in 1.2 M urea, 50 mM sodium borate buffer (pH 8.2) were added into each well in the presence of 1 μM mofegiline and 0.5 mM pargyline (to inhibit SSAO and MAO-B and MAO-A, respectively). […]", "data": [{"smiles": "Cc1c(-c2cccc(S(=O)(=O)N(C)C)c2)c2nc(C(=O)N(C)C)ccc2n1C/C(F)=C/CN", "values": [{"measurement": "IC50", "result": "> 300", "unit": "nM"}]}, {"smiles": "Cc1c(-c2cccc(S(=O)(=O)N(C)C)c2)c2cc(C(=O)N(C)C)ccc2n1C/C(F)=C/CN", "values": [{"measurement": "IC50", "result": "> 300", "unit": "nM"}]}]}
